According to US10351578B2, “Heterocyclic-substituted pyridinopyrimidinone derivative as CDK inhibitor and use thereof” (Shanghai Xunhe Pharmaceutical Technology Co. Ltd., priority 2016, dated 2019):

Legend:
[1] = target: T1, CDK6 protein kinase (GST-CDK6(1-326 end)) (Homo sapiens, UniProt Q00534); assay: CDK6 protein kinase activity, Caliper mobility shift assay; format: biochemical; conditions: substrate Peptide FAM-P8, 28° C. for 3 h
T1 construct: GST-CDK6(1-326 end); GST (N)
Method: (§1) Activity Assay: The CDK6 protein kinase activity was measured using the Caliper mobility shift assay (see J. Biomol. Screen, 2009, PP31). The test compound was dissolved in DMSO and diluted with a kinase buffer solution (20 mM HEPES-pH 7.5, 0.01% Triton X-100, 10 mM MgCl2, 2 mM DTT) and 5 μL of the compound at 5-fold final concentration of reaction dissolved in 10% DMSO was added in a 384-well plate. The compound-free control well was 5 μL of 10% DMSO, and the no-activity control well was 5 μL of kinase buffer. 10 μL of a 2.5-fold diluted CDK6 enzyme solution (GST-CDK6(1-326 end)) was added and incubated at room temperature for 10 min, and then 10 μL of the 2.5-fold diluted substrate solution Peptide FAM-P8 was added. The reaction was stopped by adding 25 μL of stop solution after incubation at 28° C. for 3 h, and the conversion rate data was read on a Caliper EZ Reader II (Caliper Life Sciences) and the conversion rate was converted to inhibition rate data according to above method. Among them, the inhibition rate %=(max−conversion)/(max−min)×100%.

[2] = target: T2, CDK4 protein kinase (GST-CDK4(1-303 end)) (Homo sapiens, UniProt P11802); assay: CDK4 protein kinase activity, Caliper mobility shift assay; format: biochemical; conditions: substrate Peptide FAM-P8, 28° C. for 3 h
T2 construct: GST-CDK4(1-303 end); GST (N)
T2 sequence (P11802 whole entry): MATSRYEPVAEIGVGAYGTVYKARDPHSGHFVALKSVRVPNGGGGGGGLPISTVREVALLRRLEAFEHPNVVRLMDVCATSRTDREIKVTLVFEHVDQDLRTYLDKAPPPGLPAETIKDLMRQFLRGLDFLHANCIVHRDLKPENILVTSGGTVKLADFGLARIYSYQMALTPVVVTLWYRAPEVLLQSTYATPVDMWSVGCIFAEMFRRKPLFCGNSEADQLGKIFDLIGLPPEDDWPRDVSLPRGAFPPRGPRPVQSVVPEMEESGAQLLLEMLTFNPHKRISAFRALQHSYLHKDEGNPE
T2 sequence (P30281 whole entry partner): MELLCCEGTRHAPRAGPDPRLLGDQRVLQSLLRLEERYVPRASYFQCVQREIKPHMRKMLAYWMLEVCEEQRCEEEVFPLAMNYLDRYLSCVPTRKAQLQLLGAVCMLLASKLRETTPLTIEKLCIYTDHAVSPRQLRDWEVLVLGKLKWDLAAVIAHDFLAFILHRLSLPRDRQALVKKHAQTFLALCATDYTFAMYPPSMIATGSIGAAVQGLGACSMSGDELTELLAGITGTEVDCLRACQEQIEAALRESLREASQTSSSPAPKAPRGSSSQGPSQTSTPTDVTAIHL
Method: as §1, with “CDK4” for “CDK6”, “(GST-CDK4(1-303” for “(GST-CDK6(1-326”

T1 sequence (Q00534 whole entry): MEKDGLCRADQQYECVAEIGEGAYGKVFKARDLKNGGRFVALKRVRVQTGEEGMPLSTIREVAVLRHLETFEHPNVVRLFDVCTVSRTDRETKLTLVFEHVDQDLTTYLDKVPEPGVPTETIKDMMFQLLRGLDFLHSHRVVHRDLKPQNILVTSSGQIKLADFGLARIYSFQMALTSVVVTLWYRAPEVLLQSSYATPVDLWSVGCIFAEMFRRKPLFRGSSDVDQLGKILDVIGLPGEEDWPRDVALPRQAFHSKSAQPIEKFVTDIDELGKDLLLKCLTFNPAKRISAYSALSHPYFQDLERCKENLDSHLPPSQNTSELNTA
T1 sequence (P30281 whole entry partner): as the sequence (P30281 whole entry partner) above

| Compound | IC50 [1] [nM] | IC50 [2] [nM] |
| --- | --- | --- |
| 8′-cyclopentyl-2′-(5-(4-ethyl-1-piperazinyl)-pyridin-2-amino)spiro[cycloprop-1,6′-pyrimido[5,4-b][1,4]oxazin]-7′(8′H)-one [Compound I-25] | ≤ 20 | ≤ 20 |
| CC1(C)Oc2cnc(Nc3ccc(N4CCNCC4)cn3)nc2N(c2cccs2)C1=O [Compound I-29, 6,6-dimethyl-8-(2-thienyl)-2-(5-(1-piperazinyl)-pyridin-2-amino)-6H-pyrimido[5,4-b][1,4]oxazin-7(8H)-one] | ≤ 20 | ≤ 20 |
| CC1(C)Oc2cnc(Nc3ccc(N4CCNCC4)cn3)nc2N(C2CCCC2)C1=O [Compound I-2, 6,6-Dimethyl-8-cyclopentyl-2-(5-(1-piperazinyl)-pyridin-2-amino)-6H-pyrimido[5,4-b][1,4]oxazin-7(8H)-one] | ≤ 20 | ≤ 20 |
| CC1(C)Oc2cnc(Nc3ccc(N4CCN(C5CCC5)CC4)cn3)nc2N(C2CCCC2)C1=O [Compound I-20, 6,6-dimethyl-8-cyclopentyl-2-(5-(4-cyclobutyl-1-piperazinyl)-pyridin-2-amino)-6H-pyrimido[5,4-b][1,4]oxazin-7(8H)-one] | ≤ 20 | ≤ 20 |
| O=C1N(C2CCCC2)c2nc(Nc3ccc(N4CCNCC4)cn3)ncc2OC1(F)F [Compound I-12, 6,6-difluoro-8-cyclopentyl-2-(5-(1-piperazinyl)-pyridin-2-amino)-6H-pyrimido[5,4-b][1,4]oxazin-7(8H)-one] | 20 to 100 | ≤ 20 |
| CCC(C)(C)N1C(=O)C(C2CCCCC2)Oc2cnc(Nc3ccc(CN4CCN(C5CC5)CC4)cn3)nc21 (stereo not drawn) [Compound I-18, 6-cyclohexyl-8-tert-amyl-2-(5-(4-cyclopropyl-1-piperazinyl)methyl-pyridin-2-amino)-6H-pyrimido[5,4-b][1,4]oxazin-7(8H)-one] | ≤ 20 | ≤ 20 |
| CCN1CCN(Cc2ccc(Nc3ncc4c(n3)N(C3CCCC3)C(=O)C(C#N)O4)nc2)CC1 (stereo not drawn) [Compound I-27, 6-cyano-8-cyclopentyl-2-(5-(4-ethyl-1-piperazinyl)methyl-pyridin-2-amino)-6H-pyrimido[5,4-b][1,4]oxazin-7(8H)-one] | ≤ 20 | ≤ 20 |
| CCN1CCN(Cc2ccc(Nc3ncc4c(n3)N(C)C(=O)C(C(C)C)O4)nc2)CC1 (stereo not drawn) [Compound I-15, 6-isopropyl-8-methyl-2-(5-(4-ethyl-1-piperazinyl)methyl-pyridin-2-amino)-6H-pyrimido[5,4-b][1,4]oxazin-7(8H)-one] | 20 to 100 | ≤ 20 |
| O=C1N(C2CCCC2)c2nc(Nc3ccc(N4CCNCC4)cn3)ncc2OC12CC2 [Compound I-4, 8′-cyclopentyl-2′-(5-(1-piperazinyl)-pyridin-2-amino)spiro[cycloprop-1,6′-pyrimido[5,4-b][1,4]oxazin]-7′(8′H)-one] | 20 to 100 | ≤ 20 |
| CN(C)C(=O)C1Oc2cnc(Nc3ccc(N4CCNCC4)cn3)nc2N(C2CCCC2)C1=O (stereo not drawn) [Compound I-33, N,N-dimethyl-6-carboxamide-8-cyclopentyl-2-(5-(1-piperazinyl)-pyridin-2-amino)-6H-pyrimido[5,4-b][1,4]oxazin-7(8H)-one] | ≤ 20 | ≤ 20 |
| CCC(CC)N1C(=O)C(C)(C)Oc2cnc(Nc3ccc(N4CCNCC4)cn3)nc21 [Compound I-37, 6,6-dimethyl-8-(3-pentyl)-2-(5-(1-piperazinyl)-pyridin-2-amino)-6H-pyrimido[5,4-b][1,4]oxazin-7(8H)-one] | 20 to 100 | ≤ 20 |
| N#CC1Oc2cnc(Nc3ccc(N4CCNCC4)cn3)nc2N(C2CCCC2)C1=O (stereo not drawn) [Compound I-10, 6-cyano-8-cyclopentyl-2-(5-(1-piperazinyl)-pyridin-2-amino)-6H-pyrimido[5,4-b][1,4]oxazin-7(8H)-one] | 100 to 500 | ≤ 20 |
| CCN1C(=O)C(C)(CC)Oc2cnc(Nc3ccc(CN4CCN(C)CC4)cn3)nc21 (stereo not drawn) [Compound I-16, 6-methyl-6,8-diethyl-2-(5-(4-methyl-1-piperazinyl)methyl-pyridin-2-amino)-6H-pyrimido[5,4-b][1,4]oxazin-7(8H)-one] | ≤ 20 | ≤ 20 |
| CC1(C)Oc2cnc(Nc3ccc(N4CCN(C5CCCCC5)CC4)cn3)nc2N(C2CCCC2)C1=O [Compound I-22, 6,6-dimethyl-8-cyclopentyl-2-(5-(4-cyclohexyl-1-piperazinyl)-pyridin-2-amino)-6H-pyrimido[5,4-b][1,4]oxazin-7(8H)-one] | ≤ 20 | ≤ 20 |
| CCC(CC)N1C(=O)C(C)(C)Oc2cnc(Nc3ccc(CN4CCN(CC)CC4)cn3)nc21 [Compound I-38, 6,6-dimethyl-8-(3-pentyl)-2-(5-(4-ethyl-1-piperazinyl)methyl-pyridine-2-amino)-6H-pyrimido[5,4-b][1,4]oxazin-7(8H)-one] | 20 to 100 | ≤ 20 |
| CC1(C)Sc2cnc(Nc3ccc(N4CCN(C5CCCCCC5)CC4)cn3)nc2N(C2CCCC2)C1=O [Compound I-23, 6,6-dimethyl-8-cyclopentyl-2-(5-(4-cycloheptyl-1-piperazinyl)-pyridin-2-amino)-6H-pyrimido[5,4-b][1,4]thiazin-7(8H)-one] | ≤ 20 | ≤ 20 |
| CCC(C)N1C(=O)C(C2CCCC2)Sc2cnc(Nc3ccc(CN4CCNCC4)cn3)nc21 (stereo not drawn) [Compound I-17, 6-cyclopentyl-8-sec-butyl-2-(5-(1-piperazinyl)methyl-pyridin-2-amino)-6H-pyrimido[5,4-b][1,4]thiazin-7(8H)-one] | > 500 | ≤ 20 |
| CC(=O)C1Oc2cnc(Nc3ccc(N4CCNCC4)cn3)nc2N(C2CCCC2)C1=O (stereo not drawn) [Compound I-9, 6-acetyl-8-cyclopentyl-2-(5-(1-piperazinyl)-pyridin-2-amino)-6H-pyrimido[5,4-b][1,4]oxazin-7(8H)-one] | 20 to 100 | ≤ 20 |
| CCN1CCN(Cc2ccc(Nc3ncc4c(n3)N(C3CCCC3)C(=O)C3(CCC3)O4)nc2)CC1 [Compound I-28] | 20 to 100 | ≤ 20 |
| O=C1N(C2CCCC2)c2nc(Nc3ccc(N4CCNCC4)cn3)ncc2OC12CCC2 [Compound I-5, 8′-cyclopentyl-2′-(5-(1-piperazinyl)-pyridin-2-amino)spiro[cyclobut-1,6′-pyrimido[5,4-b][1,4]oxazin]-7′(8′H)-one] | 20 to 100 | ≤ 20 |
| O=C1C(C2CC2)Oc2cnc(Nc3ccc(N4CCNCC4)cn3)nc2N1C1CCCC1 (stereo not drawn) [Compound I-13, 6-cyclopropyl-8-cyclopentyl-2-(5-(1-piperazinyl)-pyridin-2-amino)-6H-pyrimido[5,4-b][1,4]oxazin-7(8H)-one] | ≤ 20 | ≤ 20 |
| O=C1N(C2CCCC2)c2nc(Nc3ccc(N4CCNCC4)cn3)ncc2OC12CCCC2 [Compound I-6, 8′-cyclopentyl-2′-(5-(1-piperazinyl)-pyridin-2-amino)spiro[cyclopenta-1,6′-pyrimido[5,4-b][1,4]oxazin]-7′(8′H)-one] | 20 to 100 | ≤ 20 |
| CC1(C)Oc2cnc(Nc3ccc(N4CCNCC4)cn3)nc2N(c2ccccc2)C1=O [Compound I-35, 6,6-dimethyl-8-phenyl-2-(5-(1-piperazinyl)-pyridin-2-amino)-6H-pyrimido[5,4-b][1,4]oxazin-7(8H)-one] | 20 to 100 | 20 to 100 |
| O=C1N(C2CCCC2)c2nc(Nc3ccc(N4CCNCC4)cn3)ncc2OC12CCCCC2 [Compound I-7, 8′-cyclopentyl-2′-(5-(1-piperazinyl)-pyridin-2-amino)spiro[cyclohex-1,6′-pyrimido[5,4-b][1,4]oxazin]-7′(8′H)-one] | ≤ 20 | ≤ 20 |
| CC1(C)Oc2cnc(Nc3ccc(N4CCNCC4)cn3)nc2N(c2ccco2)C1=O [Compound I-32] | > 500 | ≤ 20 |
| CC1(C)Oc2cnc(Nc3ccc(N4CCNCC4)cn3)nc2N(c2ccc(Cl)cc2)C1=O [Compound I-36, 6,6-dimethyl-8-(4-chlorophenyl)-2-(5-(1-piperazinyl)-pyridin-2-amino)-6H-pyrimido[5,4-b][1,4]oxazin-7(8H)-one] | ≤ 20 | ≤ 20 |
| O=C1N(C2CCCC2)c2nc(Nc3ccc(N4CCNCC4)cn3)ncc2OC12CCCCCC2 [Compound I-8, 8′-cyclopentyl-2′-(5-(1-piperazinyl)-pyridin-2-amino)spiro[cyclohepta-1,6′-pyrimido[5,4-b][1,4]oxazin]-7′(8′H)-one] | 20 to 100 | ≤ 20 |
